Data set [1] relates to Influenza A virus. The data set is described as follows: Antiviral activity against influenza A virus A/Duck/Guangdong/99(H5N1) infected in MDCK cells assessed as reduction in virus induced cytopathic effect preincubated for 30 mins with virus followed by viral infection and measured after 48 hrs by microscopy analysis. In kind it is functional, organism-based. In general terms: Damage to the host cells serves as the signal in cytopathic effect assays.

The nature of data set [2]: Cytotoxicity against dog MDCK cells measured after 48 hrs by MTT assay. In kind it is cell-based, Canis lupus familiaris. On the technique in general: Formazan colour is commonly taken as a measure of viable cells.
A short description of data set [3]: Selectivity index, ratio of CC50 for dog MDCK cells to IC50 for influenza A virus A/Duck/Guangdong/99(H5N1). The class given is toxicity. To be noted: read-out: Ratio CC50/IC50.
For data set [4], the target named is Neuraminidase (Influenza A virus (A/Puerto Rico/8/1934(H1N1))) (UniProt P03468). The data set is described as follows: Inhibition of Influenza A virus (A/Puerto Rico/8/34(H1N1) neuraminidase N1 using MUNANA as substrate preincubated for 30 mins followed by substrate addition and further incubated for 1 hr in dark by microplate reader based fluorescence assay.
Chain of Neuraminidase (Influenza A virus (A/Puerto Rico/8/1934(H1N1))) (P03468 whole entry): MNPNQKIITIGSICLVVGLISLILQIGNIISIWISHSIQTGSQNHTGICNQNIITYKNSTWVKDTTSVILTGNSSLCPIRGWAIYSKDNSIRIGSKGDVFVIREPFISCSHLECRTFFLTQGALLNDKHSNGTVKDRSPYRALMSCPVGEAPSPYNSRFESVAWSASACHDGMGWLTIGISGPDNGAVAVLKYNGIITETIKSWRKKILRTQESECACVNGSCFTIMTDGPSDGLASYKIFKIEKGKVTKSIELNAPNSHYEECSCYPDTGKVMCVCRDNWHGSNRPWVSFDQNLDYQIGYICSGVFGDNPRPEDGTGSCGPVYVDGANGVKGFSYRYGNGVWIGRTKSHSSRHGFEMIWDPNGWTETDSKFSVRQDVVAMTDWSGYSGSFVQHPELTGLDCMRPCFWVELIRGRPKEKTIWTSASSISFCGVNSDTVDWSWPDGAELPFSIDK

For data set [5], the system named is Influenza A virus. The data set is described as follows: Antiviral activity against influenza A virus A/Duck/Guangdong/99(H5N1) infected in MDCK cells assessed as inhibition of viral replication measured after 48 hr post infection by FITC/DAPI-staining based immunofluorescence microscopy assay. In kind it is functional, organism-based.
In data set [6] the test system is Influenza A virus. The data set is described as follows: Antiviral activity against influenza A virus H5N1 pseudovirus with HA (A/Thailand/Kan353/2004(H5N1) - HA/NA (A/Thailand/Kan353/2004(H5N1) -NA/HIV core plasmids infected in MDCK cells assessed as pseudovirus neutralization incubated for 30 mins with virus followed by viral infection and measured after 48 hrs by luciferase assay. In kind it is functional, organism-based.

The target of data set [7] is Hemagglutinin (Influenza A virus) (UniProt B4URE7). The data set is described as follows: Inhibition of influenza A virus HA-mediated chicken erythrocytes hemagglutination measured after 1 hr.
Chain of Hemagglutinin (Influenza A virus) (B4URE7 as listed by the source): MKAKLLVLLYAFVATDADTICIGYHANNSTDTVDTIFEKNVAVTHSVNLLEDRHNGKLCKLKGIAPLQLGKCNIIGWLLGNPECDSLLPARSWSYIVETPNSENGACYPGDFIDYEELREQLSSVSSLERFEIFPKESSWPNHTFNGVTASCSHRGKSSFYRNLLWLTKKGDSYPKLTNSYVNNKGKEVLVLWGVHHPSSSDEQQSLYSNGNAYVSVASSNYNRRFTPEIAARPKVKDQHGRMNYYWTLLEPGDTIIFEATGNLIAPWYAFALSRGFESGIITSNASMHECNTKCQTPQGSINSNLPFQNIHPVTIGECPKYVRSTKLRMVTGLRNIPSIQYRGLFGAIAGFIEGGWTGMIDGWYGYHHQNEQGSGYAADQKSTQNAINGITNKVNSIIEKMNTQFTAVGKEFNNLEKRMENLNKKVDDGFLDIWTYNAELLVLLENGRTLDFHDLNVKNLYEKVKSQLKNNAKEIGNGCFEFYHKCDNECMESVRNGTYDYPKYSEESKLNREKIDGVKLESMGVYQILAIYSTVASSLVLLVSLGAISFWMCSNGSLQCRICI
The target in data set [8] is Hemagglutinin (Influenza A virus, UniProt B4URE7). The data set is described as follows: Binding affinity to influenza A virus hemagglutin by surface plasmon resonance assay.
Chain of Hemagglutinin (B4URE7 whole entry): as the sequence (B4URE7 as listed by the source) above
A short description of data set [9]: Binding affinity to influenza A virus hemagglutinin 1 by surface plasmon resonance assay. Background: SPR reads the build-up and loss of mass on a sensor chip optically.
The subject of data set [10] is Vesicular stomatitis virus. The data set is described as follows: Antiviral activity against VSV-G pseudovirus infected in MDCK cells assessed as pseudovirus neutralization preincubated for 30 mins with virus and followed by viral infection and measured after 48 hrs by luciferase assay. The class given is functional, organism-based.

Experimental findings from ChEMBL document CHEMBL4393734, “Structure-aided optimization of 3-O-β-chacotriosyl ursolic acid as novel H5N1 entry inhibitors with high selective index” (Bioorg Med Chem, 2019) are described below.

Each structure is given as a SMILES string. The source made the active and inactive calls. No cut-off for these calls is given here.

Broadly, the IC50 is the point on the concentration scale where inhibition reaches its midpoint. In general, CC50 refers to the concentration giving 50% cytotoxicity. Low readings indicate greater toxicity to the cells, high ones lower toxicity to the cells. The term Kd denotes the free concentration of one partner at which half of the binding sites on the other are occupied at equilibrium, for simple one-to-one binding. A lower Kd goes with higher affinity.

For `C[C@H]1[C@H](C)CC[C@]2(C(=O)Nc3ccc(Cl)cc3)CC[C@]3(C)C(=CC[C@@H]4[C@@]5(C)CC[C@H](O[C@@H]6O[C@H](CO)[C@@H](O[C@@H]7O[C@@H](C)[C@H](O)[C@@H](O)[C@H]7O)[C@H](O)[C@H]6O[C@@H]6O[C@@H](C)[C@H](O)[C@@H](O)[C@H]6O)C(C)(C)[C@@H]5CC[C@]43C)[C@H]12`, the IC50 in [1] was 3.48 µM. Further, the CC50 at 48 h in data set [2] is over 1000 µM. Besides, the selectivity ratio in data set [3] was over 287. In addition, in data set [4], the inhibition result is “inactive”.
`COc1cccc(NC(=O)[C@]23CC[C@@H](C)[C@H](C)[C@H]2C2=CC[C@@H]4[C@@]5(C)CC[C@H](O[C@@H]6O[C@H](CO)[C@@H](O[C@@H]7O[C@@H](C)[C@H](O)[C@@H](O)[C@H]7O)[C@H](O)[C@H]6O[C@@H]6O[C@@H](C)[C@H](O)[C@@H](O)[C@H]6O)C(C)(C)[C@@H]5CC[C@@]4(C)[C@]2(C)CC3)c1`: the IC50 in data set [1] is 5.92 µM. In data set [2], this molecule gave a CC50 at 48 h of over 1000 µM. The selectivity ratio in data set [3] was over 113.
As for `COc1ccccc1NC(=O)[C@]12CC[C@@H](C)[C@H](C)[C@H]1C1=CC[C@@H]3[C@@]4(C)CC[C@H](O[C@@H]5O[C@H](CO)[C@@H](O[C@@H]6O[C@@H](C)[C@H](O)[C@@H](O)[C@H]6O)[C@H](O)[C@H]5O[C@@H]5O[C@@H](C)[C@H](O)[C@@H](O)[C@H]5O)C(C)(C)[C@@H]4CC[C@@]3(C)[C@]1(C)CC2`, the figures for the IC50 in data set [1] and in data set [6] were 1.05 µM and 1.28 µM, respectively. For the same molecule, the cytotoxic concentration (CC50) at 48 h in data set [2] was over 1000 µM. In addition, the selectivity ratio in data set [3] was over 952. The Activity result in [5] is “Dose-dependent effect”. Besides, the inhibition entry in data set [4] and in [10] was “inactive” each time. Also, the inhibition entry in data set [7] was “Dose-dependent effect”. Further, the Kd in data set [8] came to 0.00122 µM; in data set [9], 0.44 µM.
As to `C[C@H]1[C@H](C)CC[C@]2(C(=O)Nc3ccc(F)cc3)CC[C@]3(C)C(=CC[C@@H]4[C@@]5(C)CC[C@H](O[C@@H]6O[C@H](CO)[C@@H](O[C@@H]7O[C@@H](C)[C@H](O)[C@@H](O)[C@H]7O)[C@H](O)[C@H]6O[C@@H]6O[C@@H](C)[C@H](O)[C@@H](O)[C@H]6O)C(C)(C)[C@@H]5CC[C@]43C)[C@H]12`, in data set [1], the IC50 was 5.28 µM. In [2], this molecule came in with a CC50 at 48 h of over 1000 µM. In [3], the selectivity ratio is over 189.
The corresponding values for `C[C@H]1[C@H](C)CC[C@]2(C(=O)Nc3ccccc3Cl)CC[C@]3(C)C(=CC[C@@H]4[C@@]5(C)CC[C@H](O[C@@H]6O[C@H](CO)[C@@H](O[C@@H]7O[C@@H](C)[C@H](O)[C@@H](O)[C@H]7O)[C@H](O)[C@H]6O[C@@H]6O[C@@H](C)[C@H](O)[C@@H](O)[C@H]6O)C(C)(C)[C@@H]5CC[C@]43C)[C@H]12` are 2.98 µM, 306 µM and 103.
For `C[C@H]1[C@H](C)CC[C@]2(C(=O)O)CC[C@]3(C)C(=CC[C@@H]4[C@@]5(C)CC[C@H](O[C@@H]6O[C@H](CO)[C@@H](O[C@@H]7O[C@@H](C)[C@H](O)[C@@H](O)[C@H]7O)[C@H](O)[C@H]6O[C@@H]6O[C@@H](C)[C@H](O)[C@@H](O)[C@H]6O)C(C)(C)[C@@H]5CC[C@]43C)[C@H]12` the same measures were 16.4 µM, 25.3 µM and 1.5.
Turning to `C[C@H]1[C@H](C)CC[C@]2(C(=O)Nc3cccc(Cl)c3)CC[C@]3(C)C(=CC[C@@H]4[C@@]5(C)CC[C@H](O[C@@H]6O[C@H](CO)[C@@H](O[C@@H]7O[C@@H](C)[C@H](O)[C@@H](O)[C@H]7O)[C@H](O)[C@H]6O[C@@H]6O[C@@H](C)[C@H](O)[C@@H](O)[C@H]6O)C(C)(C)[C@@H]5CC[C@]43C)[C@H]12`, the IC50 in data set [1] worked out at 7.35 µM. The same molecule yielded a CC50 at 48 h in data set [2] of over 1000 µM. Besides, the selectivity ratio in data set [3] was over 136.
For `CNC(=O)[C@]12CC[C@@H](C)[C@H](C)[C@H]1C1=CC[C@@H]3[C@@]4(C)CC[C@H](O[C@@H]5O[C@H](CO)[C@@H](O[C@@H]6O[C@@H](C)[C@H](O)[C@@H](O)[C@H]6O)[C@H](O)[C@H]5O[C@@H]5O[C@@H](C)[C@H](O)[C@@H](O)[C@H]5O)C(C)(C)[C@@H]4CC[C@@]3(C)[C@]1(C)CC2` the same measures were 11.2 µM, 683 µM and 60.7.
As for `COc1ccc(NC(=O)[C@]23CC[C@@H](C)[C@H](C)[C@H]2C2=CC[C@@H]4[C@@]5(C)CC[C@H](O[C@@H]6O[C@H](CO)[C@@H](O[C@@H]7O[C@@H](C)[C@H](O)[C@@H](O)[C@H]7O)[C@H](O)[C@H]6O[C@@H]6O[C@@H](C)[C@H](O)[C@@H](O)[C@H]6O)C(C)(C)[C@@H]5CC[C@@]4(C)[C@]2(C)CC3)cc1`, in [1], the IC50 is 2.12 µM. Also, the CC50 at 48 h in [2] is over 1000 µM. The selectivity ratio in data set [3] is over 472. Besides, the inhibition result in data set [4] is “inactive”.
For `C[C@H]1[C@H](C)CC[C@]2(C(=O)Nc3ccccc3)CC[C@]3(C)C(=CC[C@@H]4[C@@]5(C)CC[C@H](O[C@@H]6O[C@H](CO)[C@@H](O[C@@H]7O[C@@H](C)[C@H](O)[C@@H](O)[C@H]7O)[C@H](O)[C@H]6O[C@@H]6O[C@@H](C)[C@H](O)[C@@H](O)[C@H]6O)C(C)(C)[C@@H]5CC[C@]43C)[C@H]12`, the IC50 in data set [1] came out at 5.85 µM. This molecule also showed a CC50 at 48 h in data set [2] of over 1000 µM. The selectivity ratio in data set [3] was over 171.
For `C[C@H]1[C@H](C)CC[C@]2(C(=O)N3CCCC3)CC[C@]3(C)C(=CC[C@@H]4[C@@]5(C)CC[C@H](O[C@@H]6O[C@H](CO)[C@@H](O[C@@H]7O[C@@H](C)[C@H](O)[C@@H](O)[C@H]7O)[C@H](O)[C@H]6O[C@@H]6O[C@@H](C)[C@H](O)[C@@H](O)[C@H]6O)C(C)(C)[C@@H]5CC[C@]43C)[C@H]12`, the IC50 in data set [1] was 3.25 µM. In data set [2], this molecule came in with a CC50 at 48 h of 42.4 µM. For the same molecule, the selectivity ratio in data set [3] was 13.
For `C[C@H]1[C@H](C)CC[C@]2(C(=O)NCc3ccccc3)CC[C@]3(C)C(=CC[C@@H]4[C@@]5(C)CC[C@H](O[C@@H]6O[C@H](CO)[C@@H](O[C@@H]7O[C@@H](C)[C@H](O)[C@@H](O)[C@H]7O)[C@H](O)[C@H]6O[C@@H]6O[C@@H](C)[C@H](O)[C@@H](O)[C@H]6O)C(C)(C)[C@@H]5CC[C@]43C)[C@H]12` the same measures were 9.35 µM, 123 µM and 13.2.
On to `C[C@H]1[C@H](C)CC[C@]2(C(=O)NCCN(C)C)CC[C@]3(C)C(=CC[C@@H]4[C@@]5(C)CC[C@H](O[C@@H]6O[C@H](CO)[C@@H](O[C@@H]7O[C@@H](C)[C@H](O)[C@@H](O)[C@H]7O)[C@H](O)[C@H]6O[C@@H]6O[C@@H](C)[C@H](O)[C@@H](O)[C@H]6O)C(C)(C)[C@@H]5CC[C@]43C)[C@H]12`, for which the IC50 in data set [1] was over 50 µM.
Turning to `C[C@H]1[C@H](C)CC[C@]2(C(=O)Nc3ccc(OC(F)(F)F)cc3)CC[C@]3(C)C(=CC[C@@H]4[C@@]5(C)CC[C@H](O[C@@H]6O[C@H](CO)[C@@H](O[C@@H]7O[C@@H](C)[C@H](O)[C@@H](O)[C@H]7O)[C@H](O)[C@H]6O[C@@H]6O[C@@H](C)[C@H](O)[C@@H](O)[C@H]6O)C(C)(C)[C@@H]5CC[C@]43C)[C@H]12`, in data set [1], the IC50 stood at 8.56 µM. In data set [2], this molecule returned a CC50 at 48 h of 451 µM. In [3], the selectivity ratio worked out at 52.6.
For `COc1ccc(CNC(=O)[C@]23CC[C@@H](C)[C@H](C)[C@H]2C2=CC[C@@H]4[C@@]5(C)CC[C@H](O[C@@H]6O[C@H](CO)[C@@H](O[C@@H]7O[C@@H](C)[C@H](O)[C@@H](O)[C@H]7O)[C@H](O)[C@H]6O[C@@H]6O[C@@H](C)[C@H](O)[C@@H](O)[C@H]6O)C(C)(C)[C@@H]5CC[C@@]4(C)[C@]2(C)CC3)cc1` the same measures were 8.72 µM, 100 µM and 11.5.
On to `C[C@H]1[C@H](C)CC[C@]2(C(=O)Nc3ccc(Br)cc3)CC[C@]3(C)C(=CC[C@@H]4[C@@]5(C)CC[C@H](O[C@@H]6O[C@H](CO)[C@@H](O[C@@H]7O[C@@H](C)[C@H](O)[C@@H](O)[C@H]7O)[C@H](O)[C@H]6O[C@@H]6O[C@@H](C)[C@H](O)[C@@H](O)[C@H]6O)C(C)(C)[C@@H]5CC[C@]43C)[C@H]12`, for which the IC50 in [1] was over 50 µM.
